Reference: patent publication US20250101038A1, “COMPOUNDS” (priority 2021, published 2025)
pEC50: −log10 of the molar value. Read-outs that look alike come from different tables or passages of the source.

What was measured:
5-HT2B receptor = target: T1, 5-HT2B receptor (Homo sapiens, UniProt P41595); assay: cell-based
T1 construct: host or cells: CHO-K1

5-HT2C receptor = target: T2, 5-HT2C receptor (Homo sapiens, UniProt P28335); assay: cell-based
T2 construct: host or cells: HEK293
T2 sequence (P28335 33-458): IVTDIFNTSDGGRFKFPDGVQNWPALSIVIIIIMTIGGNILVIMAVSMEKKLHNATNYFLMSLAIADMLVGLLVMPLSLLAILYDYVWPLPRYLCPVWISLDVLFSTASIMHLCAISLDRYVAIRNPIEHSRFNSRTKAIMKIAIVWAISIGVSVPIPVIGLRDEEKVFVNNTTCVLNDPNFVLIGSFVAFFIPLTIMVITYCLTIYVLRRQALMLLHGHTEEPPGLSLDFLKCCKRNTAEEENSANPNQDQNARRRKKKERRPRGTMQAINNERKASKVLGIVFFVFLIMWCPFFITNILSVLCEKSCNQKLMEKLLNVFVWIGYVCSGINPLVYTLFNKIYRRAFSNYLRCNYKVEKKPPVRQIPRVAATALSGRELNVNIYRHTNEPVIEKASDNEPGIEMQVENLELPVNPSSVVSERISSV

5-HT2A receptor = target: T3, 5-HT2A receptor (Homo sapiens, UniProt P28223); assay: FLIPR Ca2+ flux functional assay, 5-HT2A; format: cell-based
T3 construct: host or cells: HEK293
T3 sequence (P28223 whole entry): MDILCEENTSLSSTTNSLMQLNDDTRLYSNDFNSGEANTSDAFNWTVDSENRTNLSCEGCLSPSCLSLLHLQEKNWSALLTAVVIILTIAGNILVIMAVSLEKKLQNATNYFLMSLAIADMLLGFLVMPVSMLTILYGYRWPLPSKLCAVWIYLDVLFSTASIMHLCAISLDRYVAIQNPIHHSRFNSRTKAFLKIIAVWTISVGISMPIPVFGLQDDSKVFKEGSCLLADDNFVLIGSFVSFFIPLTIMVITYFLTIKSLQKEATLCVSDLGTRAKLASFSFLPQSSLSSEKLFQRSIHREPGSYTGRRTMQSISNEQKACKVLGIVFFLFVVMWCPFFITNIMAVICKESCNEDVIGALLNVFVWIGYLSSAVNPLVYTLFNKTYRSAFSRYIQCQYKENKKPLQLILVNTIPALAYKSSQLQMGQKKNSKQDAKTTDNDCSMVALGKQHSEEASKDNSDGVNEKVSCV
Experimental: Activity at 5-HT2A, 5-HT2B and 5-HT2C receptors was determined using a FLIPR Ca^2+ flux assay at WuXi AppTec Co. Ltd. (Hong Kong) Discovery Biology Unit according to their standard protocols. Briefly, stably transfected cells expressing the receptor of interest (HEK293 for 5-HT2A and 5-HT2C; CHO-K1 for 5-HT2B) were grown and plated in a 384 well plate and incubated at 37° C. and 5% CO2 overnight. A 250 mM stock solution of probenecid in FLIPR calcium assay buffer (10 mL) was freshly prepared and combined with a fluorescent dye (Fluo-4 Direct) to give a final assay concentration of 2.5 mM. Reference compounds were 4-fold serially diluted and the screening compounds were 3-fold serially diluted in 100% DMSO for 10 points using Agilent Bravo, and 750 nL was added to a 384 well compound plate using Echo along with 30 μL assay buffer. The fluorescent dye was then added to the assay plate along with assay buffer to a final volume of […]. The cell plate was incubated for 50 min at 37° C. and 5% CO2 and placed into the FLIPR Tetra along with the compound plate. 10 μL of references and compounds were then transferred from the compound plate into the cell plate and the fluorescent signal was read.

[1] = agonist activity, Ca2+ flux, CHO-K1 cells
[2] = agonist activity, Ca2+ flux, CHO-K1 cells, read-out: 5-HT2B EC50
[3] = agonist activity, Ca2+ flux, HEK293 cells
[4] = agonist activity, Ca2+ flux, HEK293 cells, read-out: 5-HT2C EC50
[5] = agonist activity, Ca2+ flux, HEK293 cells, read-out: 5-HT2A EC50

T1 sequence (P41595 whole entry): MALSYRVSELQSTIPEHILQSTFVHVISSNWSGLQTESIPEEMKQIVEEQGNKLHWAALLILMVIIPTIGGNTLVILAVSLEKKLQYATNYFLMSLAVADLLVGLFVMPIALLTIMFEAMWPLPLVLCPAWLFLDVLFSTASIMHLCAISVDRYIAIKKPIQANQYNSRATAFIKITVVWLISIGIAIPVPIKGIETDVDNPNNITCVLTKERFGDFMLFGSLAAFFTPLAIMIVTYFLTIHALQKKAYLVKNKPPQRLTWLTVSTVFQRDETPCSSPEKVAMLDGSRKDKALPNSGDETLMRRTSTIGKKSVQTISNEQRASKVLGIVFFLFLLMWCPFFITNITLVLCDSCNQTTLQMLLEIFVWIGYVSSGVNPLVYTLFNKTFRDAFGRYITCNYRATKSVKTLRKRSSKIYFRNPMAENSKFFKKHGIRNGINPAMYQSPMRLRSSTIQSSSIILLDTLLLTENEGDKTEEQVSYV

Row | Structure (SMILES) | Emax (5-HT2B receptor; [1]) | pEC50 (5-HT2B receptor; [2]) | Emax (5-HT2C receptor; [3]) | pEC50 (5-HT2C receptor; [4]) | Emax (5-HT2A receptor; [3]) | pEC50 (5-HT2A receptor; [5]) | pEC50 (5-HT2B receptor) | pEC50 (5-HT2C receptor) | pEC50 (5-HT2A receptor) | 5-HT2B Emax (5-HT2B receptor; [1]) | 5-HT2C Emax (5-HT2C receptor; [3]) | 5-HT2A Emax (5-HT2A receptor; [3])
1 | CN(C)CCc1c[nH]c2cc3c(cc12)OCC3 [Example P-1, 2-(3,5-dihydro-2H-furo[2,3-f]indol-7-yl)-N,N-dimethylethan-1-amine] | 2.92% | < 5.00 | 82.3% | 6.87 | 63.9% | 6.86 |  |  |  |  |  | 
2 | CCN(CC)CCc1c[nH]c2ccc3oc(C)nc3c12 [Example P-134, N,N-diethyl-2-(2-methyl-6H-oxazolo[4,5-e]indol-8-yl)ethan-1-amine] | 56.4% |  | 91.3% |  | 77.5% |  | 7.22 | 6.37 | 7.69 |  |  | 
3 | CCCN(C)CCc1c[nH]c2c(C)ccc(O)c12 [Example P-86, 7-methyl-3-(2-(methyl(propyl)amino)ethyl)-1H-indol-4-ol] | -0.14% | ≤ 5.00 | 10% | < 5.00 | 66.9% | 6.96 |  |  |  |  |  | 
4 | CN(C)CCc1c[nH]c2cc(F)cc(F)c12 [Example P-147, 2-(4,6-difluoro-1H-indol-3-yl)-N,N-dimethylethan-1-amine] | 15.3% | ≤ 5.00 | 15.3% |  | 91.6% | 7.53 |  |  |  |  |  | 
5 | CN(C)CCc1c[nH]c2ccc(F)c(F)c12 [Example P-142, 2-(4,5-difluoro-1H-indol-3-yl)-N,N-dimethylethan-1-amine] | 2.92% |  | 118% |  | 70% |  |  |  |  |  |  | 
6 | CCN(CC)CCc1c[nH]c2cc(C)c(OC)cc12 [Example P-45, N,N-diethyl-2-(5-methoxy-6-methyl-1H-indol-3-yl)ethan-1-amine] |  | 6.07 |  | 6.15 |  | 7.11 |  |  |  | 23.83% | 84.59% | 81.54%
7 | CCN(C)CCc1c[nH]c2c(F)ccc(OC)c12 [Example P-102, N-ethyl-2-(7-fluoro-4-methoxy-1H-indol-3-yl)-N-methylethan-1-amine] | 3.44% | < 5.00 | 47.5% | 6.81 | 60.8% | 7.82 |  |  |  |  |  | 
8 | CCN(CCc1c[nH]c2ccc(OC)c(C)c12)C(C)C [Example P-40, N-ethyl-N-(2-(5-methoxy-4-methyl-1H-indol-3-yl)ethyl)propan-2-amine] | 33.8% | < 5.00 | 0.71% | < 5.00 | 78.4% | 6.05 |  |  |  |  |  | 
9 | CN(C)CCc1c[nH]c2cc(F)c(F)cc12 [Example P-153, 2-(5,6-difluoro-1H-indol-3-yl)-N,N-dimethylethan-1-amine] | 10.6% | < 5.00 | 93.6% | 8.27 | 74.8% | 7.53 |  |  |  |  |  | 
10 | CCN(CC)CCc1c[nH]c2c(F)cc(OC)cc12 [Example P-117, N,N-diethyl-2-(7-fluoro-5-methoxy-1H-indol-3-yl)ethan-1-amine] | 41.2% |  | 81.5% |  | 95.8% |  |  |  |  |  |  | 
11 | Cc1ccc2[nH]cc(CCN(C(C)C)C(C)C)c2c1O [Example P-69, 3-(2-(diisopropylamino)ethyl)-5-methyl-1H-indol-4-ol] | 66.9% | ≤ 5.00 | 70.2% | 5.49 | 78.8% | 6.61 |  |  |  |  |  | 
12 | CC(C)N(C)CCc1c[nH]c2c(F)c(F)ccc12 [Example P-161, N-(2-(6,7-difluoro-1H-indol-3-yl)ethyl)-N-methylpropan-2-amine] | 1.6% | < 5.00 | 80.9% | 6.38 | 48% | 7.26 |  |  |  |  |  | 
13 | COc1c(C)ccc2[nH]cc(CCN(C(C)C)C(C)C)c12 [Example P-63, N-isopropyl-N-(2-(4-methoxy-5-methyl-1H-indol-3-yl)ethyl)propan-2-amine] | 70.2% | 5.65 | 49.4% | 5.02 | 72.7% | 5.80 |  |  |  |  |  | 
14 | CC(C)N(CCc1c[nH]c2ccc(F)c(F)c12)C(C)C [Example P-146, N-(2-(4,5-difluoro-1H-indol-3-yl)ethyl)-N-isopropylpropan-2-amine] | 155% | 7.67 | 93.1% | 7.60 | 98.4% | 8.00 |  |  |  |  |  | 
15 | CCN(C)CCc1c[nH]c2ccc3oc(C)nc3c12 [Example P-132, N-ethyl-N-methyl-2-(2-methyl-6H-oxazolo[4,5-e]indol-8-yl)ethan-1-amine] | 11.4% |  | 85.7% |  | 69.1% |  | < 5.00 | 6.75 | 7.69 |  |  | 
16 | CCN(CC)CCc1c[nH]c2ccc3ocnc3c12 [Example P-129, N,N-diethyl-2-(6H-oxazolo[4,5-e]indol-8-yl)ethan-1-amine] | 41.1% |  | 93.1% |  | 64% |  | 7.83 | 7.14 | 7.84 |  |  | 
17 | COc1c(F)ccc2[nH]cc(CCN(C(C)C)C(C)C)c12 [Example P-95, N-(2-(5-fluoro-4-methoxy-1H-indol-3-yl)ethyl)-N-isopropylpropan-2-amine] | 96.3% | 7.67 | 83% | 6.59 | 93.2% | 7.70 |  |  |  |  |  | 
18 | COc1cc(F)c2[nH]cc(CCN(C(C)C)C(C)C)c2c1 [Example P-118, N-(2-(7-fluoro-5-methoxy-1H-indol-3-yl)ethyl)-N-isopropylpropan-2-amine] | 95.2% | 7.18 | 97.1% | 6.16 | 82.2% | 7.76 |  |  |  |  |  | 
19 | CCN(C)CCc1c[nH]c2c(F)cc(OC)cc12 [Example P-115, N-ethyl-2-(7-fluoro-5-methoxy-1H-indol-3-yl)-N-methylethan-1-amine] | 16.4% |  | 81.7% |  | 85.6% |  |  |  |  |  |  | 
20 | COc1ccc2[nH]cc(CCN(C)C)c2c1C [Example P-6, 2-(5-methoxy-4-methyl-1H-indol-3-yl)-N,N-dimethylethan-1-amine] | 11.3% | < 5.00 | 73.6% | 6.52 | 64.1% | 6.90 |  |  |  |  |  | 
21 | CCN(CC)CCc1c[nH]c2ccc(C)c(OC)c12 [Example P-61, N, N-diethyl-2-(4-methoxy-5-methyl-1H-indol-3-yl)ethan-1-amine] | 46.3% | < 5.00 | 75.8% | 6.35 | 67.7% | 6.49 |  |  |  |  |  | 
22 | CC(C)N(C)CCc1c[nH]c2cc(F)c(F)cc12 [Example P-155, N-(2-(5,6-difluoro-1H-indol-3-yl)ethyl)-N-methylpropan-2-amine] | 45.4% | ≤ 5.00 | 83.7% | 7.29 | 73.4% | 7.98 |  |  |  |  |  | 
23 | CCN(CC)CCc1c[nH]c2c(F)ccc(OC)c12 [Example P-104, N,N-diethyl-2-(7-fluoro-4-methoxy-1H-indol-3-yl)ethan-1-amine] | 13.1% | < 5.00 | 52.5% | 5.09 | 77.5% | 7.55 |  |  |  |  |  | 
24 | COc1c(F)ccc2[nH]cc(CCN(C)C)c12 [Example P-91, 2-(5-fluoro-4-methoxy-1H-indol-3-yl)-N,N-dimethylethan-1-amine] | 4.57% | < 5.00 | 109% | 8.91 | 74.9% | 8.63 |  |  |  |  |  | 
